Assay results reported in US20090029369A1, “GENETIC SELECTION SYSTEM TO IDENTIFY PROTEASES, PROTEASE SUBSTRATES AND PROTEASE INHIBITORS” (priority 2005, published 2009).
Changes are numbered by the printed parent chain.

Columns and labels:
CMV protease [1] = target: T1, CMV protease (Human cytomegalovirus, UniProt P16753); assay: yeast growth selection assay: RLY07 cells co-expressing Trp1(194)-M substrate and CMV protease; format: cell-based; parameters: The CMV protease gene encoding amino acids 1-256 of the 75 kDa precursor was obtained by PCR from CMV infected MRC5 human cells; expressed in transfected cells; host or cells: Saccharomyces cerevisiae RLY07 (pdr5Δ snq2Δ yor1Δ); Protease on CEN4-ARS1 plasmid pMH51 under the GAL1 promoter; conditions: for effect of increasing concentrations on cell proliferation: concentration series, active protease, ~2 days at 30° C., 96-well plates
Procedure: (§1) RLY07 cells transformed with the different TRP1-M constructs and a plasmid encoding the CMV protease or the empty vector were inoculated in 3 ml of 2% galactose -ura -leu medium and grown at 30° C. to OD600 1. They were washed with 5 ml H2O and resuspended in 2% galactose -ura -leu -trp medium supplemented with 10% glycerol (=growth selection medium, glycerol promotes CMV protease dimerisation and subsequent proteolytic activity) and diluted to a start OD600 0.01. For the experiments with the coxackievirus 3C protease, preculture medium was 2% glucose -ura -leu, assay medium was 2% glucose -ura -leu trp, and inoculation OD600 0.001. At time zero, assay cultures at the aforesaid start OD600 were distributed in 96-well microtiter plates, with a volume of 150 μl per well, and incubated without shaking at 30° C. At the time points indicated in the “results” section, plates were shaken to resuspend cells before being submitted to light scattering measurement at 595 nm in a Tecan Genios reader for determining cell density.
CMV protease inhibitors BI31 and BI36 (Boeringher Ingelheim, Quebec) were dissolved in DMSO and added to the assay cultures at time zero of the growth assay. Final DMSO concentration was 1%.
RLY07 cells co-expressing Trp1^194-M substrate and the CMV protease were incubated with a concentration series of BI31 and BI36 in 96-well microtiter plates and cultivated under selective conditions. […] Importantly, despite this toxicity BI31 still stimulates growth of cells expressing the active protease (triangles). For example, at 50 μM cell density is multiplied by a factor 4 despite 25% toxicity.

CMV protease [2] = target: T1, CMV protease; assay: Western blot of Trp1(194)-M substrate cleavage by CMV protease in yeast; format: cell-based; parameters: The CMV protease gene encoding amino acids 1-256 of the 75 kDa precursor was obtained by PCR from CMV infected MRC5 human cells; expressed in transfected cells; host or cells: Saccharomyces cerevisiae RLY07; Protease on plasmid pMH51 under the GAL1 promoter
Procedure: Yeast whole cell extracts were prepared as described by Burke et al. (Burke, Dawson et al. 2000). Proteins were separated by SDS-PAGE and Western blot analysis was performed according to standard procedures (Ausubel et al., 2003, Current Protocols in Molecular Biology). An HA-monoclonal antibody from Sigma (clone 3F10) was used at a concentration of 30 ng/ml to detect expression of TRP1(194)-M.
The Western blot was performed to provide biochemical evidence for inhibition of cleavage of CMV protease by compound BI36 (FIG. 5B). […] As in the Western blot on FIG. 3C, unfortunately no cleavage products could be detected.

[3] = target: Trp1-2C/3A substrate: yeast Trp1p with the 13 amino acid coxsackievirus B3 2C/3A cleavage sequence inserted after Gly194 (Saccharomyces cerevisiae; coxsackievirus B3) (UniProt P00912); assay: cell-based or functional assay
RLY07 cells = assay: growth of RLY07 cells expressing the inactive, point-mutated CMV protease (toxicity control); format: cell-based, S. cerevisiae
Procedure: as §1
CMV protease inhibitors BI31 and BI36 (Boeringher Ingelheim, Quebec) were dissolved in DMSO and added to the assay cultures at time zero of the growth assay. Final DMSO concentration was 1%. […]

[4] = target: Trp1(194)-M (long): yeast Trp1p with the 39 amino acid CMV M-site cleavage sequence inserted after Gly194 (Saccharomyces cerevisiae; human cytomegalovirus) (UniProt P00912); assay: cell-based or functional assay
[5] = target: Trp1(194)-M (short): yeast Trp1p with the 13 amino acid CMV M-site cleavage sequence inserted after Gly194 (Saccharomyces cerevisiae; human cytomegalovirus) (UniProt P00912); assay: cell-based or functional assay
[6] = target: T2, Trp1(194)-M with HA tags at both the N-terminus and the C-terminus, P00912
T2 chain: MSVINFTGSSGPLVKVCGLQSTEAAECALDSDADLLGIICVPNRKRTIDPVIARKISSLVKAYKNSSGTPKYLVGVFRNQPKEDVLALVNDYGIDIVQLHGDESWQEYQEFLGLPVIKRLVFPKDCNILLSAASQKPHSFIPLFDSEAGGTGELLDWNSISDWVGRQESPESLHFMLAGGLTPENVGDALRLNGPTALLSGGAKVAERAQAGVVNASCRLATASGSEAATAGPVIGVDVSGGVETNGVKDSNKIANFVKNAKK

[7] = target: point-mutated Trp1(194)-M (A→E) substrate with HA tags, as blotted, P00912

## CN(Cc1ccc([N+](=O)[O-])cc1)C(=O)N1C(=O)C[C@@H]1CSc1nnnn1C [BI36]
CMV protease [1]
  EC50: 31 µM
  effect of increasing concentrations on cell proliferation: dose-dependent increase of cell proliferation
CMV protease [1]; 100 μM
  CMV protease inhibition judged from OD600 versus cells expressing inactive protease: almost completely inhibited
CMV protease [2]; 10 μM
  inhibition of proteolysis (Western blot): only slightly inhibited
CMV protease [2]; 100 μM
  inhibition of cleavage (Western blot): inhibits the cleavage almost completely
CMV protease [2]; concentration series 100 μM, 30 μM, 10 μM
  inhibition of substrate cleavage (Western blot): prevented substrate cleavage in a dose-dependent manner

## cysteine protease 3C from coxsackievirus B3 (from UniProt P03313 1541-1723) (enzyme)
[3]
  cell growth in selective medium lacking tryptophan after 27 h at 30° C., against cells expressing only the substrate: 60%

## CN(Cc1ccc(C(F)(F)F)cc1)C(=O)N1C(=O)C[C@@H]1CSc1ncccn1 [BI31]
CMV protease [1]; 50 μM, cells expressing the active protease
  factor by which cell density is multiplied: 4
CMV protease [1]
  effect of increasing concentrations on cell proliferation: dose-dependent increase of cell proliferation
RLY07 cells; 50 μM
  toxicity: 25%
RLY07 cells; increasing concentrations, cells expressing inactive protease
  toxic effect on cells (decrease of cell proliferation): dose-dependent toxic effect

## human cytomegalovirus (CMV) protease, amino acids 1-256 of the 75 kDa precursor (from UniProt P16753 1-256) (enzyme)
[4]
  proliferation reduction in medium lacking tryptophan for 38 h: 85%
[5]
  OD600 of co-expressing RLY07 cells in liquid selective medium after 36 hours, against control cells with an empty plasmid instead of the protease plasmid: 35%
  proliferation reduction in medium lacking tryptophan for 38 h (FIG. 3B, lanes 1, 2): 35%

B1: human cytomegalovirus (CMV) protease, amino acids 1-256 of the 75 kDa precursor (protein)
chain: MTMDEQQSQAVAPVYVGGFLARYDQSPDEAELLLPRDVVEHWLHAQGQGQPSLSVALPLNINHDDTAVVGHVAAMQSVRDGLFCLGCVTSPRFLEIVRRASEKSELVSRGPVSPLQPDKVVEFLSGSYAGLSLSSRRCDDVEAATSLSGSETTPFKHVALCSVGRRRGTLAVYGRDPEWVTQRFPDLTAADRDGLRAQWQRCGSTAVDASGDPFRSDSYGLLGNSVDALYIRERLPKLRYDKQLVGVTERESYVKA
[6]
  anti-HA Western blot of yeast extracts, full-length 33 kDa substrate band (FIG. 3C, lane 2): Co-expression of active CMV protease (lane 2) causes disappearance of the full-length substrate
  anti-HA Western blot, 33 kDa band (FIG. 5B, lane 2): co-expressing the active protease instead of the inactive version causes disappearance of the 33 kDa band
[7]
  anti-HA Western blot of yeast extracts, full-length substrate band (FIG. 3C, lane 4): active protease has no effect on the point-mutated Trp1(194)-M (A→E) substrate, as the band is also present

B2: inactive version of the CMV protease harbouring the S(132) A mutation at the catalytic site (protein)
chain: B1 chain with S132A
[6]
  anti-HA Western blot of yeast extracts, full-length 33 kDa substrate band (FIG. 3C, lane 3): the inactive CMV protease does not cleave the Trp1(194)-M substrate (since the full-length substrate band does not disappear)
  anti-HA Western blot, 33 kDa band (FIG. 5B, lane 1): A 33 kDa band corresponds to the full-length Trp1(194)-M substrate upon co-expression with inactive CMV protease
